In patent publication EP4685142A1, “TRIAZINE COMPOUND AND USE THEREOF” (Chengdu Zenitar Biomedical Technology Co., Ltd., priority 2023, dated 2024):
Like-named read-outs stand apart in the source and are kept apart here.

How the values were obtained:
[1] = Pharmacokinetic evaluation in Balb/c mice; assay type: in vivo; conditions: mouse, in vivo, 5 mg/kg
Text: 4. Pharmacokinetic evaluation of compounds in Balb/c mice
Experimental purpose: to understand pharmacokinetic properties of the compounds.
Experimental basis: Technical Guidelines for Nonclinical Pharmacokinetic Studies of Chemical Drugs, 2014.
Experimental protocol: the pharmacokinetic properties of the compounds were investigated via intravenous administration and intragastric administration in Balb/c mice.
The blood drug concentration was quantitatively analyzed by LC-MS/MS, and pharmacokinetic parameters were calculated, such as peak concentration (Cmax), area under the concentration-time curve (AUC(0-t)), half-life (T1/2), clearance (CL), volume of distribution at steady state (Vdss), and bioavailability (F).
The results of pharmacokinetic evaluation are shown in Table 5 below: Table 5 Pharmacokinetic test results of compounds in Balb/c mice

[2] = biological target: T1, hERG potassium ion channel (Homo sapiens, UniProt Q12809)
T1 sequence (Q12809 whole entry): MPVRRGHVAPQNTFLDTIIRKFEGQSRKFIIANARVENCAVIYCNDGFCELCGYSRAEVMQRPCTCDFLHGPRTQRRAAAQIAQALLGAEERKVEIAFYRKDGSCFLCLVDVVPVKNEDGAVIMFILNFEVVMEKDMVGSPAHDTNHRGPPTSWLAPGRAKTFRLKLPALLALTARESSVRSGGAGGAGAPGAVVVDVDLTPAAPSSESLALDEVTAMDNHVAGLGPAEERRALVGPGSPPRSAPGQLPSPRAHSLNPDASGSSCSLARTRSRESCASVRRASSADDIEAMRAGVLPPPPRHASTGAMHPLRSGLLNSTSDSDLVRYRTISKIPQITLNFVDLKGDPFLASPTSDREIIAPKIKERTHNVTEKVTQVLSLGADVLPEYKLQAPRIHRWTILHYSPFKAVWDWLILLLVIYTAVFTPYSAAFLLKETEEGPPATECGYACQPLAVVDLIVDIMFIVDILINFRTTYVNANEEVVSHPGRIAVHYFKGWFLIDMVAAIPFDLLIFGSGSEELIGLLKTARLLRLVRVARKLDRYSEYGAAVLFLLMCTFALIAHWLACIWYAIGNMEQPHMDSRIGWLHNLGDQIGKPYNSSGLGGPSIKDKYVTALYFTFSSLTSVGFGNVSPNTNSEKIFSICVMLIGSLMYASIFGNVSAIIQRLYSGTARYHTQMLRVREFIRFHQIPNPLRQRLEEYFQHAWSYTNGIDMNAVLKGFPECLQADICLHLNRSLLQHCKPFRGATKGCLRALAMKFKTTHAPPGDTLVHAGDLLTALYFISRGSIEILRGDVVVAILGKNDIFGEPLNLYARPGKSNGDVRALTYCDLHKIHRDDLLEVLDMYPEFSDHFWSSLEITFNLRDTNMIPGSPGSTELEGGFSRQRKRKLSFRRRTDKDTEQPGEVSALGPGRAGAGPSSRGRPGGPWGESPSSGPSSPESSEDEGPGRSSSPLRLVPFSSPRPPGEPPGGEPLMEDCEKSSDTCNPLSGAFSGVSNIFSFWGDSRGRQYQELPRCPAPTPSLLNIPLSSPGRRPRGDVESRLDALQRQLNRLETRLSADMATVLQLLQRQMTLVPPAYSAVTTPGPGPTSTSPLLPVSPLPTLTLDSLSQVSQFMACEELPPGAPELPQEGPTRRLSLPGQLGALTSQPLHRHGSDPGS
Experimental: (§1) Inhibition experiment of compounds on hERG potassium ion channel
(§2) Cell culture and treatment: CHO cells stably expressing hERG were cultured in cell culture flasks and incubated in a 5% CO2 incubator at 37°C. When a cell density reached 60%-80%, the cell culture medium was aspirated, washed once with PBS, and then digested with Detachin. After digestion, the grown cells were neutralized in the cell culture medium, and then centrifuged, the supernatant was aspirated, the cell culture medium was added again to resuspend the grown cells, and the cell density was adjusted to 2-5×10^6 cells/mL for later use.
(§3) Compound preparation: the compound stock solution was diluted in 100% DMSO, that is, 10 µL compound stock solution was serially diluted in 20 µL DMSO by 3 folds to obtain six concentrations. Six concentrations of the compound (4 µL for each concentration) were diluted in 396 µL extracellular fluid by 100 folds to obtain six intermediate concentrations. Six intermediate concentrations of the compound (80 µL for each concentration) were diluted in 320 µL extracellular fluid by 5 folds to obtain final concentrations to be tested. […] DMSO in a final test concentration was not more than 0.2%, and DMSO at this concentration had no effect on the hERG potassium channel. The entire dilution process for compound preparation was performed using Bravo instrument.
(§4) Electrophysiological recording process: the processes of single-celled high-impedance sealing and whole-cell mode formation were all automatically completed by Qpatch instrument, under the whole-cell recording mode, the cells were clamped at -80 mV, before 5-second + 40 mV depolarization stimulus, the cells were given 50-millisecond - 50 mV pre-voltage, followed by repolarization to -50 mV for 5 seconds, and then returning to -80 mV. The voltage stimulus was given every 15 seconds, after 2 minutes of recording, extracellular fluid was recorded for 5 min, and then a drug was administrated, started from a lowest test concentration, each test concentration of the compound was given for 2.5 minutes, after all concentrations were given consecutively, a positive control compound Cisapride (3 µM) was given. At least 3 cells were tested for each concentration (n≥3).
(§5) Data processing: data analysis and processing were performed using GraphPad Prism 5.0 and Excel software. IC50 values of the compounds were calculated by fitting with the following equation using GraphPad Prism 5 software: Y = Bottom + (Top−Bottom)/(1+10^(∧)((LogIC50−X)*HillSlope)); [formula] where X is the Log value of the test sample concentration, Y is an inhibition percentage at a corresponding concentration, and Bottom and Top are the minimum and maximum inhibition percentages, respectively.

NLRP3 inflammasome = biological target: T2, NLRP3 inflammasome (Homo sapiens, UniProt Q96P20); assay: Inhibitory activity of NLRP3 inflammasome in human monocytes (THP-1 cells, LPS + Nigericin, IL-1β ELISA); assay type: cell-based
T2 construct: host or cells: THP-1 cells
T2 sequence (Q96P20 whole entry): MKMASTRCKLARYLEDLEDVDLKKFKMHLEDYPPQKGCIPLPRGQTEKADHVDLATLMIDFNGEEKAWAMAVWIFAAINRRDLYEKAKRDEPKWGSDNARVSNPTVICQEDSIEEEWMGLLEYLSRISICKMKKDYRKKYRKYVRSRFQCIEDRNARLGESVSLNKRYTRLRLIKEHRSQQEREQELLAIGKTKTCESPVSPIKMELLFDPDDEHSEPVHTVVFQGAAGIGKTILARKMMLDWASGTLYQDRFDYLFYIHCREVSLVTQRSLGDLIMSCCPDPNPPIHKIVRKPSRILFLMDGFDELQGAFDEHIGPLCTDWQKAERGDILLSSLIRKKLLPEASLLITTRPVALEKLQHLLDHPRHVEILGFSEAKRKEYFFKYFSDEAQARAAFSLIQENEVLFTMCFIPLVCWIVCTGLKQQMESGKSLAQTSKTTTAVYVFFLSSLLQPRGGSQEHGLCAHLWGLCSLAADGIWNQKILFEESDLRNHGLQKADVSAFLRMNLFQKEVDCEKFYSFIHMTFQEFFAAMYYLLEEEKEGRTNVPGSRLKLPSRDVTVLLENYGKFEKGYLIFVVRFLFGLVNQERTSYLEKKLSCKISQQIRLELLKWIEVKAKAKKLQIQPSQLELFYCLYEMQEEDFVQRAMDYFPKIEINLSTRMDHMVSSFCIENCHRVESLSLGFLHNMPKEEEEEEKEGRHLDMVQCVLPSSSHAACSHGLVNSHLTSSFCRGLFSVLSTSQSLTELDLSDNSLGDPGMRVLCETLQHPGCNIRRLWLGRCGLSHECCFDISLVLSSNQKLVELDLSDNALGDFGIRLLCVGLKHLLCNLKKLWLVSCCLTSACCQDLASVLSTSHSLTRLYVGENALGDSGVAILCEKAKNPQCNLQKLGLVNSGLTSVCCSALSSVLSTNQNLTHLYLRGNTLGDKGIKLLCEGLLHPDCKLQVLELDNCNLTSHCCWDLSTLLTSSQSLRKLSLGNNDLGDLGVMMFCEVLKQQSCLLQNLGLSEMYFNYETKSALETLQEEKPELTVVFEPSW
Method in brief: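 THP-1 cells differentiated overnight with 10 µM PMA at 37°C and 5% CO2, then primed 3 h with 1 µg/mL LPS in Opti-MEM. Compound applied for 40 min, followed by 40 min with 10 µM nigericin. IL-1β in supernatant measured by ELISA.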

[3] = biological target: T1, hERG potassium ion channel; assay: Inhibition of hERG potassium ion channel (CHO cells stably expressing hERG, Qpatch)
Experimental: as §1, §2, §3, §4, §5

[4] = In vivo distribution of cerebrospinal fluid and plasma; conditions: for Cerebrospinal fluid / Plasma: intravenous 5 mg/kg, n=1; for concentration at 0.25 h / concentration at 2 h: male, iv, 5 mg/kg
Experimental: Evaluation of in vivo distribution of cerebrospinal fluid and plasma after compound administration
Experimental procedure: the compound was weighed, followed by adding a small amount of DMSO and then adding a sodium chloride solution for injection, to prepare a 5 mg·mL^-1 compound solution for administration. […] Standard curve range: 1-1000 ng·mL^-1.

[5] = In vivo brain-to-plasma ratio in mice; conditions: for Brain / Plasma: male mice, oral 10 mg/kg
[6] = PO, Balb/c mice, read-out: AUC(0-t)
[7] = PO, Balb/c mice, read-out: Cmax
[8] = PO, Balb/c mice, read-out: T1/2 (converted)

Row | Structure (SMILES) | AUC(0-t) [1, 6] [ng·h/mL] | Cmax [1, 7] [ng/mL] | half-life [1, 8] [h] | inhibitory effects on the hERG potassium ion channel (conclusion in words) [2] | IC50 (NLRP3 inflammasome) [nM] | 20 uM Inhibition ratio [3] [%] | Cerebrospinal fluid ([4]; 0.25h) [ng/g] | Plasma ([4]; 0.25h) [ng/mL] | Cerebrospinal fluid ([4]; 2h) [ng/g] | Plasma ([4]; 2h) [ng/mL] | further results
1 | CCn1c(-c2ccc3sccc3c2O)nnc(N[C@@H]2CCCN(C)C2)c1=O [Compound 17, (R)-4-ethyl-3-(4-hydroxybenzo[b]thiophen-5-yl)-6-[(1-methylpiperidin-3-yl)amino]-1,2,4-tria zin-5(4H)-ketone] | 17800 | 1850 | 4.2 | Conclusion: compounds 3, 4, 5, 9, 16, 17, 24, 30, 40, 41, 42, 43, 54 and others have weak inhibitory effects on the hERG potassium ion channel, having weaker inhibitory effect than the reference compound Ref-1. | 3.19 | 22.83 | 47 | 713 | 25 | 590 | Brain ([5]; 1 h): 745 ng/g; Plasma ([5]; 1 h): 5243 ng/mL; Brain ([5]; 6 h): 290 ng/g; Plasma ([5]; 6 h): 1872 ng/mL; Kp at 1 h ([5]; mouse, brain, po, 10 mg/kg): 0.14; Kp at 6 h ([5]; mouse, brain, po, 10 mg/kg): 0.16
2 | CCn1c(-c2ccc3sccc3c2O)nnc(N[C@@H]2C[C@@H](F)CN(C)C2)c1=O [Compound 43, 4-ethyl-6-(((3R,5R)-5-fluoro-1-methylpiperidin-3-yl)amino)-3-(4-hydroxybenzo[b]thiophen-5-yl)-1,2,4-triazin-5(4H)-ketone] | 15700 | 5070 | 2.25 | Conclusion: compounds 3, 4, 5, 9, 16, 17, 24, 30, 40, 41, 42, 43, 54 and others have weak inhibitory effects on the hERG potassium ion channel, having weaker inhibitory effect than the reference compound Ref-1. | 5.66 | 14.23 | 151 | 6797 | 40 | 1911 | distribution concentrations in cerebrospinal fluid / brain penetration potential (conclusion in words) ([4]; mouse, in vivo): Conclusion: some compounds of the present invention have good brain penetration potential, and particularly, compounds 40, 43 and others have high distribution concentrations in cerebrospinal fluid.
3 | CCN1C[C@H](F)C[C@@H](Nc2nnc(-c3ccc4sccc4c3O)n(CC)c2=O)C1 [Compound 42, 4-ethyl-6-(((3R,5R)-1-ethyl-5-fluoropiperidin-3-yl)amino)-3-(4-hydroxybenzo[b]thiophen-5-y 1)-1,2,4-triazin-5(4H)-ketone] | – | – | – | – | – | 14.98 | – | – | – | – | AUC(0-t) ([1]; male, Balb/c, po): 2500 ng·h/mL; Cmax ([1]; male, Balb/c, po): 2700 ng/mL; half-life ([1]; male, Balb/c, po): 1.61 h; inhibitory effects on the hERG potassium ion channel (conclusion in words) ([2]; human): Conclusion: compounds 3, 4, 5, 9, 16, 17, 24, 30, 40, 41, 42, 43, 54 and others have weak inhibitory effects on the hERG potassium ion channel, having weaker inhibitory effect than the reference compound Ref-1.; IC50 (NLRP3 inflammasome; THP-1 cells, PMA, LPS 1 µg/mL 3 h, drug 40 min, Nigericin 10 µM 40 min, IL-1β ELISA, read-out: IC50): 4.76 nM; concentration at 0.25 h ([4]; mouse, cerebrospinal fluid): 35 ng/g; concentration at 2 h ([4]; mouse, cerebrospinal fluid): 1 ng/g; concentration at 0.25 h ([4]; mouse, plasma): 965 ng/mL; concentration at 2 h ([4]; mouse, plasma): 46 ng/mL
